ChEMBL document CHEMBL4732045, “Amide Bond Bioisosteres: Strategies, Synthesis, and Successes” (J Med Chem, 2020)
≈ marks a conversion by molar mass, not a printed value. Peptide text beside a SMILES is read from it. * marks the point of attachment. Hica(2S) = CC(C)C[C@H](O)C(=O)O; Boc = CC(C)(C)OC(=O)*

Columns and labels:
[1] = molecular target: Kappa-type opioid receptor (Homo sapiens, UniProt P41145)
[2] = molecular target: Delta-type opioid receptor (Homo sapiens, UniProt P41143)
Mu-type opioid receptor = Mu-type opioid receptor (Homo sapiens, UniProt P35372)
[3] = Antagonist activity at bombesin receptor in Sprague-Dawley rat pancreatic acini assessed as inhibition of bombesin-induced amylase release incubated for 30 mins; assay type: tissue-based, Pancreas
Cannabinoid receptor 1 = Cannabinoid receptor 1 (Homo sapiens, UniProt P21554); experiment: Displacement of [3H]-CP55940 from human recombinant cannabinoid CB1 receptor expressed in HEK cells by Cheng-Prusoff analysis; assay type: cell-based
[4] = molecular target: T1, Transient receptor potential cation channel subfamily V member 1 (Homo sapiens, UniProt Q8NER1); experiment: Antagonist activity at human recombinant TRPV1 expressed in HEK293 cells assessed as effect on intracellular calcium level by FLOU-4 dye based fluorescence spectrometry; assay type: cell-based
[5] = molecular target: T1, Transient receptor potential cation channel subfamily V member 1
[6] = molecular target: Protein-S-isoprenylcysteine O-methyltransferase (Homo sapiens, UniProt O60725); experiment: Inhibition of human isoprenylcysteine carboxyl methyltransferase expressed in Saccharomyces cerevisiae membranes using AFC as substrate in presence of 14C-SAM incubated for 30 min by scintillation counting method; assay type: cell membranes, Cell membrane
[7] = Inhibition of ACAT in cholesterol-fed New Zealand rabbit intestional microsomes using [1-14C]oleoyl-CoA as substrate preincubated for 5 mins followed by substrate addition and measured after 5 mins by liquid scintillation counting method; design: species or system Oryctolagus cuniculus, Intestine, Microsome
Rattus norvegicus = experiment: Hypocholesterolemic activity in cholestrol fed Sprague-Dawley rat assessed as decrease in total cholesterol at 0.05%, po administered for 1 week; assay type: functional; design: scale not given: the % may be the effect or the level left; conditions: time 1 weeks
[8] = Half-life in Sprague-Dawley rat plasma at 50 uM measured by LC-MS/MS analysis; assay type: ADME, cell-free
[9] = Half-life in human plasma at 50 uM measured by LC-MS/MS analysis; assay type: ADME, cell-free
clinical = conditions: human
MDA-MB-231 [10] = experiment: cells; conditions: Homo sapiens, MDA-MB-231, 24 h
MDA-MB-231 [11] = experiment: Antitumor activity against human MDA-MB-231 cells xenografted in nude mouse assessed as reduction in tumor volume at 70 mg/kg, ip administered for 15 days (reference value: 550 +/- 98.6 mm3); assay type: functional; conditions: time 15 day
MCF-10A = experiment: Antiproliferative activity against human MCF-10A cells incubated for 24 hrs by MTT assay; assay type: functional, cell-based
[12] = Half life in Sprague-Dawley rat plasma measured after 60 mins by HPLC method; assay type: ADME, cell-free
[13] = molecular target: T2, Delta-type opioid receptor (Mus musculus, UniProt P32300); experiment: Agonist activity at delta opioid receptor in mouse vas deferens assessed as inhibition of electric-field induced measured after 5 mins; assay type: tissue-based
[14] = molecular target: T2, Delta-type opioid receptor; experiment: Inhibition of [3H]-Deltorphin 2 binding to mouse delta opioid receptor expressed in rat GH3 cell membranes by Cheng-Prusoff analysis; design: species or system Cell membrane
Human betaherpesvirus 5 = experiment: Antiviral activity against HCMV infected in human Hs68 cells by plaque reduction assay; assay type: functional, cell-based; conditions: Human betaherpesvirus 5, Hs68
Neprilysin = Neprilysin (Homo sapiens, UniProt P08473); experiment: Inhibition of NEP 24.11 (unknown origin) by fluorometric assay
[15] = molecular target: T2, Delta-type opioid receptor; experiment: Inhibition of [3H]-Deltorphin 2 binding to mouse delta opioid receptor expressed in HEK293 cell membranes incubated for 60 mins by Cheng-Prusoff analysis; design: species or system Cell membrane
[16] = molecular target: Human immunodeficiency virus type 1 protease (Human immunodeficiency virus 1, UniProt Q72874); experiment: Inhibition of HIV1 protease
[17] = tested on: Human immunodeficiency virus 1; experiment: Antiviral activity against HIV1 3b isolate infected in human MT4 cells assessed as blockade of viral spread pretreated for 24 hrs followed by viral infection and subsequently treated with compound every 2 to 3 days post infection by ELISA; assay type: functional; conditions: Human immunodeficiency virus 1, 3b isolate, read-out: CIC95
[18] = molecular target: Gastrin/cholecystokinin type B receptor (Homo sapiens, UniProt P32239); experiment: Agonist activity at CCKBR in human NCI-H345 cells assessed as calcium release; assay type: functional, cell-based
[19] = molecular target: Gastrin/cholecystokinin type B receptor (Homo sapiens) (UniProt P32239); experiment: Agonist activity at CCKBR in human NCI-H345 cells assessed as calcium release relative to control; assay type: functional, cell-based; conditions: filed as agonist
[20] = Inhibition of [125]BH-CCK8 binding to guinea pig cortex CCKBR by radioligand binding assay; assay type: tissue-based, Cavia porcellus
[21] = molecular target: Cholecystokinin receptor type A (Cavia porcellus, UniProt Q63931); experiment: Inhibition of [125]BH-CCK8 binding to guinea pig pancreas CCKAR by radioligand binding assay; assay type: tissue-based
MDA-MB-231 [22] = experiment: Antitumor activity against human MDA-MB-231 cells xenografted in nude mouse assessed as reduction in tumor volume at 90 mg/kg, ip administered for 15 days (reference value: 550 +/- 98.6 mm3); assay type: functional; conditions: time 15 day
Interstitial collagenase = Interstitial collagenase (Homo sapiens, UniProt P03956); experiment: Inhibition of PMA-induced human skin fibroblast derived MMP1 by fluorometric assay; assay type: tissue-based
Stromelysin-1 = Stromelysin-1 (Homo sapiens, UniProt P08254); experiment: Inhibition of human MMP3 by fluorometric assay
Matrilysin = Matrilysin (Homo sapiens, UniProt P09237); experiment: Inhibition of human MMP7 by fluorometric assay
[23] = Half life in rat at 30 mg/kg, po; assay type: ADME, organism-based; conditions: in vivo
[24] = Oral bioavailability in rat at 30 mg/kg; assay type: ADME, organism-based; conditions: in vivo
[25] = molecular target: 72 kDa type IV collagenase (Homo sapiens, UniProt P08253); experiment: Inhibition of TNF-induced MMP2 isolated from human HT-1080 cell medium by fluorometric assay; assay type: tissue-based
PC-3 [26] = experiment: Cytotoxicity against human PC-3 cells incubated for 96 hrs by MTT assay; assay type: functional, cell-based; conditions: PC-3, 96 h
HeLa = experiment: Cytotoxicity against human HeLa cells incubated for 96 hrs by MTT assay; assay type: functional, cell-based
PC-3 [27] = experiment: Cytotoxicity activity against human PC-3 cells incubated for 96 hrs by MTT method; assay type: functional, cell-based; conditions: PC-3, 96 h
HT-29 = experiment: Cytotoxicity against human HT-29 cells incubated for 96 hrs by MTT assay; assay type: functional, cell-based; conditions: HT-29, 96 h
A549 = experiment: Cytotoxicity against human A549 cells incubated for 96 hrs by MTT assay; assay type: functional, cell-based; conditions: A549, 96 h
HL-60 [28] = experiment: Cytotoxicity against human HL-60 cells incubated for 96 hrs by MTT assay; assay type: functional, cell-based; conditions: HL-60, 96 h
HL-60 [29] = experiment: Cytotoxicity activity against human HL-60 cells incubated for 96 hrs by MTT assay; assay type: functional, cell-based; conditions: HL-60, 96 h
CAKI-2 = experiment: Cytotoxicity against human Caki-2 cells incubated for 96 hrs by MTT assay; assay type: functional, cell-based; conditions: CAKI-2, 96 h
[30] = Oral bioavailability in Sprague-Dawley rat at 2 mg/kg; assay type: ADME, organism-based; conditions: in vivo
[31] = Plasma clearance in rat; assay type: ADME
Integrin alpha-4/beta-1 = Integrin alpha-4/beta-1 (Homo sapiens, UniProt P05556+P13612); experiment: Displacement of 125I-VCAM-Ig from VLA4 in human Jurkat cells incubated for 30 mins by scintillation counting method; assay type: cell-based

T2 sequence (P32300 whole entry): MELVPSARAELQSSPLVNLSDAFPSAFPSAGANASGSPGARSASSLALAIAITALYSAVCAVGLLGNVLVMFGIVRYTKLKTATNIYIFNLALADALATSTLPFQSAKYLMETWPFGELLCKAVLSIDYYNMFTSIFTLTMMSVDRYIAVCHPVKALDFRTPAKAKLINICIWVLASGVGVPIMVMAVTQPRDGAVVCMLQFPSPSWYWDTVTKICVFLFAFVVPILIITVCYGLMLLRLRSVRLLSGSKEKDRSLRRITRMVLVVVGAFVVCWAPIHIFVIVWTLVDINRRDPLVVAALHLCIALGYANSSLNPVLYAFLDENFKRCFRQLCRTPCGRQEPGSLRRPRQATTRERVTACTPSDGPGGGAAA
Chain of Delta-type opioid receptor (Homo sapiens, UniProt P41143) (P41143 whole entry): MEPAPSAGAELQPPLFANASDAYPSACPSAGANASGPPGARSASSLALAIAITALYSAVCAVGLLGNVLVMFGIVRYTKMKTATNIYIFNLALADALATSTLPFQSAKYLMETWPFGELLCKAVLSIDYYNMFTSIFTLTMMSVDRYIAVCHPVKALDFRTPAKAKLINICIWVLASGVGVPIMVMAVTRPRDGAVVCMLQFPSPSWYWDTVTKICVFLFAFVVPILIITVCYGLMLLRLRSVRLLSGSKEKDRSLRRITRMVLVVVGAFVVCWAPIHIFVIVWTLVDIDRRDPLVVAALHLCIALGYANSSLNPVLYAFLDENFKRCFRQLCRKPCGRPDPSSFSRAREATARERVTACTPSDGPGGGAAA
Chain of Gastrin/cholecystokinin type B receptor (Homo sapiens) (P32239 whole entry): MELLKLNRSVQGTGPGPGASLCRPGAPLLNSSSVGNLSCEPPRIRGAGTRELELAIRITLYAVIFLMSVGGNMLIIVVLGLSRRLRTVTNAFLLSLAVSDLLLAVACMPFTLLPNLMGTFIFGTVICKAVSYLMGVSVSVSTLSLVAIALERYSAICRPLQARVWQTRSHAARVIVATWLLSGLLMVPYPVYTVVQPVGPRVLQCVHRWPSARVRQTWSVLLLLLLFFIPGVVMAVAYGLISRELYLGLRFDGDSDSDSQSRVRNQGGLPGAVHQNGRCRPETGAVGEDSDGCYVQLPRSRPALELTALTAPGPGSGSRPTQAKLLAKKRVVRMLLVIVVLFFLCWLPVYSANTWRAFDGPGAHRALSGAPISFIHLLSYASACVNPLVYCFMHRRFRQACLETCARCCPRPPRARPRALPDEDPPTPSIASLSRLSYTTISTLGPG
Chain of Kappa-type opioid receptor (P41145 whole entry): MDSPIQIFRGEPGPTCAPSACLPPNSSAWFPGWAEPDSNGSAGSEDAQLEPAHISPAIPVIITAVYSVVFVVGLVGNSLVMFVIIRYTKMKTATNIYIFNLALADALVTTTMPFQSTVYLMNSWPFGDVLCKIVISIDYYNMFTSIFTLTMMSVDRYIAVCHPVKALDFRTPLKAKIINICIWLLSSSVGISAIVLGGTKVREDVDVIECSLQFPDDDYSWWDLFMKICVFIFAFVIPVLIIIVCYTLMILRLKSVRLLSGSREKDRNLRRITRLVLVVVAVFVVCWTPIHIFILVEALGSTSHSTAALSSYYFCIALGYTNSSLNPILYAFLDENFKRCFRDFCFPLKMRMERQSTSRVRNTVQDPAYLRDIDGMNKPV
T1 sequence (Q8NER1 whole entry): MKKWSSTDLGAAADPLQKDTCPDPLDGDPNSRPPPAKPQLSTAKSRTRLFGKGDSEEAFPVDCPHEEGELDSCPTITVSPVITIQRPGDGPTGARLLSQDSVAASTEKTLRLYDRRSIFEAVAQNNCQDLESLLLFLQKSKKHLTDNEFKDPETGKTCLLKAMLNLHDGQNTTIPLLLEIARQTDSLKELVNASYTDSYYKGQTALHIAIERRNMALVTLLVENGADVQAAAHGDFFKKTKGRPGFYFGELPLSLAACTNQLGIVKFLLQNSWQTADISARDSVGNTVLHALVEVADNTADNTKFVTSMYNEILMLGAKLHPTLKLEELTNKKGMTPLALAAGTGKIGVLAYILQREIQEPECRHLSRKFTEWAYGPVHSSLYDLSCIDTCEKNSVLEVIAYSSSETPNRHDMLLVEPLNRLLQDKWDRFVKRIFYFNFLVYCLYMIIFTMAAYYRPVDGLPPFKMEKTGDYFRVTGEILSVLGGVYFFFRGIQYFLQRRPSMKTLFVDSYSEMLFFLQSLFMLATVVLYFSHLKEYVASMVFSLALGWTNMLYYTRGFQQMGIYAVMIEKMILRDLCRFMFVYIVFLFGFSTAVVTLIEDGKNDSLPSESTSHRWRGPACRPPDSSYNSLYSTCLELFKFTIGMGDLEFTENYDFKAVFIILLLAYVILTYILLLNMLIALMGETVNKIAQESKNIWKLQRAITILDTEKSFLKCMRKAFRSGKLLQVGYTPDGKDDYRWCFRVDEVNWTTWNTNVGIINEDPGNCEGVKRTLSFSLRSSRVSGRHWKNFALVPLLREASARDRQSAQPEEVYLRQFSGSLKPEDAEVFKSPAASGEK
Chain of Mu-type opioid receptor (P35372 whole entry): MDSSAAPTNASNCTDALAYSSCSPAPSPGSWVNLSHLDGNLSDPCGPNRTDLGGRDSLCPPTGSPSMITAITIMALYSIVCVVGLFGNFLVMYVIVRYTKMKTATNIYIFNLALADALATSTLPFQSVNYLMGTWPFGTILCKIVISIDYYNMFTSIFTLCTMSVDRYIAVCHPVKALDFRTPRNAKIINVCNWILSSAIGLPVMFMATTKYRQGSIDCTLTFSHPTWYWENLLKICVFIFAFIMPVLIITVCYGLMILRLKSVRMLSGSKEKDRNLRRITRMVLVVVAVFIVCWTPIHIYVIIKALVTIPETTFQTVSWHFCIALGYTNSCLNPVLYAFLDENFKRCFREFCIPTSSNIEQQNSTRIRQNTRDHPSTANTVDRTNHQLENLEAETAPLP
Chain of Neprilysin (P08473 whole entry): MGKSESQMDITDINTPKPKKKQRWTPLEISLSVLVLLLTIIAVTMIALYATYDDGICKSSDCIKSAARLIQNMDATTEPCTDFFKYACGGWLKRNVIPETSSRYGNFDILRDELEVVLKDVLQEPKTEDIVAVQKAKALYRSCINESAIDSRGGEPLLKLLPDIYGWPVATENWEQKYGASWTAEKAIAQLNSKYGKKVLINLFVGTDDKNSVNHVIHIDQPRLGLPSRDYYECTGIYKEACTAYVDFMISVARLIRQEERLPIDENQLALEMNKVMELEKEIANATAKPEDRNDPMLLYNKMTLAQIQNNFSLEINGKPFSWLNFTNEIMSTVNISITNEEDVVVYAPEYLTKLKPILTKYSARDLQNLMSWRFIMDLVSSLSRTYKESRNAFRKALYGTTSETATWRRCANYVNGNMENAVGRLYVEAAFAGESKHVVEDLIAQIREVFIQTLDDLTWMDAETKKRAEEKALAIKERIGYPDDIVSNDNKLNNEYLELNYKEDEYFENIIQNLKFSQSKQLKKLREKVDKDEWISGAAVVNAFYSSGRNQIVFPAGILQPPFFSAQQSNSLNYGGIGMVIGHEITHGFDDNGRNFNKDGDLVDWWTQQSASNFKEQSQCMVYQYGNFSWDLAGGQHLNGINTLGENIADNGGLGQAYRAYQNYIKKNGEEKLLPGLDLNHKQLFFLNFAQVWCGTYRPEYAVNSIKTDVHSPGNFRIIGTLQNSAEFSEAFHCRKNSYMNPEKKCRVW
Chain of Protein-S-isoprenylcysteine O-methyltransferase (O60725 whole entry): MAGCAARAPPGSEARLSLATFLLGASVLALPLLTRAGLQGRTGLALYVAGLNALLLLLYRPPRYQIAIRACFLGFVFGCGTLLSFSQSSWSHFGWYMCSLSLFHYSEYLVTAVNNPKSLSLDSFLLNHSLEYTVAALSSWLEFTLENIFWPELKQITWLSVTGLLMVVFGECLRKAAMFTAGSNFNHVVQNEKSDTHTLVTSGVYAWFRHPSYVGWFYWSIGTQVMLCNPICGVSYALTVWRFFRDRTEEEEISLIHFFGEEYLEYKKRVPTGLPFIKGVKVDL
Chain of Cholecystokinin receptor type A (Q63931 whole entry): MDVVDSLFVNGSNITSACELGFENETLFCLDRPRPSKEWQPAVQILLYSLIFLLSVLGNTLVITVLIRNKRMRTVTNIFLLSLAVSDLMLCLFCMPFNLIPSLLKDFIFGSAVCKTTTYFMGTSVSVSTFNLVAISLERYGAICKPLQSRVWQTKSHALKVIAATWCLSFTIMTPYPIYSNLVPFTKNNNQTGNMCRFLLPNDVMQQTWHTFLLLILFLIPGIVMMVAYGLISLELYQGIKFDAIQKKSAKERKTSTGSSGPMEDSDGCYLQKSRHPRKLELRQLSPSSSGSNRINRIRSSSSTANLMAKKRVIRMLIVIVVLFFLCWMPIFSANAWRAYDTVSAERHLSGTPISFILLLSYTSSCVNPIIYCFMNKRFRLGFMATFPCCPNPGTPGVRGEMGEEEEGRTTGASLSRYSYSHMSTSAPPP
Chain of Gastrin/cholecystokinin type B receptor (P32239 whole entry): as the sequence (P32239 whole entry) above
Chain of 72 kDa type IV collagenase (P08253 whole entry): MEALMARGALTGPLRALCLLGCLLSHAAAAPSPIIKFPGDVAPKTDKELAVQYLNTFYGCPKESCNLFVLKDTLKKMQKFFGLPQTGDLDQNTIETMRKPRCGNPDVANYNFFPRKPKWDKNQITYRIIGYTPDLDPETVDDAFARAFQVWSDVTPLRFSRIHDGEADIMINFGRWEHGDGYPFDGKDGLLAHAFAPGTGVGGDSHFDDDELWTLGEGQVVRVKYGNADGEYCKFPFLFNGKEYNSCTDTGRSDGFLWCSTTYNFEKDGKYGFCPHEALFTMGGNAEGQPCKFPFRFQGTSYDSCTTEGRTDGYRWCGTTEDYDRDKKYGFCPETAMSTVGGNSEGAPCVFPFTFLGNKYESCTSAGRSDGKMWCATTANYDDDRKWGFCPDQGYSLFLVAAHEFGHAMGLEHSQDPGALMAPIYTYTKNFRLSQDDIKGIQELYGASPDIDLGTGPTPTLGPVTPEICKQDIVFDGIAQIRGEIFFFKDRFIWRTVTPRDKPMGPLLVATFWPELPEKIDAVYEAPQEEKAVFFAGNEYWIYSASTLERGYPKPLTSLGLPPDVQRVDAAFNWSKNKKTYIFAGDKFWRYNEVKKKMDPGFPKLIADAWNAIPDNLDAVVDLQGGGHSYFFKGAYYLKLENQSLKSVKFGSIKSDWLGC

CC(C)C[C@H](NC(=O)[C@H](Cc1ccccc1)NC(=O)CNC(=O)CN[C@@H]([C@@H](N)Cc1ccc(O)cc1)C(F)(F)F)C(=O)O
EC50 [1]: > 10000 nM
EC50 [2]: > 10000 nM
EC50 (Mu-type opioid receptor): > 10000 nM

CC(C)C[C@H](N)CNC(=O)[C@H](CC(C)C)NC(=O)[C@H](Cc1cnc[nH]1)NC(=O)CNC(=O)[C@@H](NC(=O)[C@H](C)NC(=O)[C@H](Cc1c[nH]c2ccccc12)NC(=O)[C@H](CCC(N)=O)NC(=O)[C@H](N)Cc1ccccc1)C(C)C
IC50 [3]: 68.7 nM

CCCCCCCc1cn(Cc2cc(OC)c(O)cc2I)nn1
Ki (Cannabinoid receptor 1): 440 nM
Ki [4]: 0.69 nM
EC50 [5]: > 10000 nM

CC(C)=CCC/C(C)=C/CC/C(C)=C/CSC[C@H](NC(=O)c1ccccc1Oc1ccccc1)C(=O)O
IC50 [6]: 4300 nM

CCCCCCCCCCCCCCCCC(=O)Nc1c(C)cccc1C
IC50 [7]: 43 nM
Activity (Rattus norvegicus): 38%

CC(C)C[C@H](NC(=O)[C@H](Cc1ccccc1)NC(=O)CNC(=O)C/C=C(\F)[C@@H](N)Cc1ccc(O)cc1)C(=O)O
half-life at 50 µM [8]: 4 h
half-life at 50 µM [9]: 4 h

Cc1nnc2n1-c1ccc(Cl)cc1C(c1ccccc1)=NC2 [ALPRAZOLAM]
half-life (clinical): 6.3 h

CCCCCCCCCCCCCCCCCNC(=O)Nc1c(C)cccc1C
IC50 [7]: 160 nM
Activity (Rattus norvegicus): 55%

CCCCS(=O)(=O)NCc1ccc2c(c1)OCO2
IC50 (MDA-MB-231 [10]): 87000 nM
Activity (MDA-MB-231 [11]): 133.4 mm3
IC50 (MCF-10A): 198000 nM

CC(C)C[C@H](OC(=O)[C@H](Cc1ccccc1)NC(=O)CNC(=O)CNC(=O)[C@@H](N)Cc1ccc(O)cc1)C(=O)O (H-YGGF-{Hica(2S)})
half-life [12]: 0.055 h
EC50 [13]: 140 nM
Ki [14]: 11.9 nM

CC(C)Oc1ccccc1CNC(=O)Nc1ccc2cnccc2n1
IC50 (Human betaherpesvirus 5): 0.03 µg/mL (≈ 0.0892 µM)

O=C(O)CC(=O)N[C@@H](CS)Cc1ccccc1
Ki (Neprilysin): 2.3 nM

CC(C)C[C@H](NC(=O)[C@@H](/C=C(\F)CNC(=O)CNC(=O)[C@@H](N)Cc1ccc(O)cc1)Cc1ccccc1)C(=O)O
Ki [15]: 43 nM

O=C(N[C@@H](Cc1ccccc1)[C@@H](O)C[C@@H](Cc1ccccc1)C(=O)N[C@H]1c2ccccc2C[C@H]1O)O[C@H]1CCOC1
IC50 [16]: < 0.03 nM
IC95 [17]: 3 nM

CC(C)C[C@H](NC(=O)OC(C)(C)C)C(=O)NCC(=O)N[C@@H](Cc1c[nH]c2ccccc12)C(=O)N[C@@H](CC(C)C)C(=O)N[C@@H](CC(=O)O)C(=O)N[C@@H](Cc1ccccc1)C(N)=O (Boc-LGWLDF-NH2)
EC50 [18]: 40 nM
Emax [19]: 99%
IC50 [20]: 54 nM
IC50 [21]: 1600 nM

COc1cc(CNC(=O)CCCC/C=C/C(C)C)ccc1O [CAPSAICIN]
IC50 (MDA-MB-231 [10]): 120000 nM
Activity (MDA-MB-231 [22]): 281.3 mm3

CC(C)C[C@@H](C(=O)O)N(C)C(=O)[C@H](Cc1ccccc1)NC(=O)CNC(=O)CNC(=O)[C@@H](N)Cc1ccc(O)cc1
half-life [12]: 0.178 h
EC50 [13]: 35 nM
Ki [14]: 12.6 nM

C=CC[C@H](C(=O)NO)[C@@H](CC(C)C)C(=O)N[C@@H](Cc1ccc2c(c1)CCC2)C(=O)NC
IC50 (Interstitial collagenase): 2.2 nM
IC50 (Stromelysin-1): 12 nM
IC50 (Matrilysin): 11 nM
half-life [23]: 0.35 h
bioavailability [24]: 0%
IC50 [25]: 1.8 nM

CSCC[C@H](NC(=O)[C@H](Cc1c[nH]c2ccccc12)NC(=O)OC(C)(C)C)C(=O)N[C@@H](CC(=O)O)C(=O)N[C@@H](Cc1ccccc1)C(N)=O
Emax [19]: 99%
IC50 [20]: 25 nM

CC(C)C[C@H](N)/C=C/NC(=O)[C@H](CC(C)C)NC(=O)[C@H](Cc1cnc[nH]1)NC(=O)CNC(=O)[C@@H](NC(=O)[C@H](C)NC(=O)[C@H](Cc1c[nH]c2ccccc12)NC(=O)[C@H](CCC(N)=O)NC(=O)[C@H](N)Cc1ccccc1)C(C)C
IC50 [3]: 6.7 nM

CCCCCCCCCCCCCC(=O)N[C@@H](CO)[C@H](O)c1ccc([N+](=O)[O-])cc1
IC50 (PC-3 [26]): 83000 nM
IC50 (HeLa): 78000 nM
IC50 (PC-3 [27]): 123000 nM
IC50 (HT-29): 96000 nM
IC50 (A549): 64000 nM
IC50 (HL-60 [28]): 28000 nM
IC50 (HL-60 [29]): 48000 nM
IC50 (CAKI-2): 107000 nM

CC[C@@]1(C(=O)N[C@@H](Cc2ccc(-c3c(OC)cccc3OC)cc2)C(=O)O)CCN1S(=O)(=O)c1ccccc1
bioavailability [30]: < 10%
clearance [31]: 110 mL/min/kg
IC50 (Integrin alpha-4/beta-1): 0.07 nM

CCCCCCCCCCCCCCCCS(=O)(=O)N[C@@H](CO)[C@H](O)/C=C/c1ccc(Cl)cc1
IC50 (HeLa): 65000 nM
IC50 (PC-3 [27]): 123000 nM
IC50 (A549): 96000 nM
IC50 (HL-60 [29]): 28000 nM
IC50 (CAKI-2): 103000 nM

O=C(O)CC(=O)N[C@H](CS)Cc1ccccc1
Ki (Neprilysin): 210 nM

CC(C)C[C@H](NC(=O)[C@H](Cc1ccccc1)NC(=O)CNC(=O)CN[C@H]([C@@H](N)Cc1ccc(O)cc1)C(F)(F)F)C(=O)O
EC50 [1]: > 10000 nM
EC50 [2]: > 10000 nM
EC50 (Mu-type opioid receptor): > 10000 nM
